Experimental findings from patent US20200399222A1, “PICOLINAMIDES AS FUNGICIDES” (Dow AgroSciences LLC, priority 2018, published 2020) are described below.

Like-named read-outs stand apart in the source and are kept apart here.

For this test, the system named is Phakopsora pachyrhizi. As to the kind of experiment: Asian soybean rust (PHAKPA) disease control on soybean seedlings. Format: in vivo. To be noted: High volume application at 25 ppm; for pest or weed control at 25 ppm: Phakopsora pachyrhizi. The protocol: Example C: Evaluation of Fungicidal Activity: Asian Soybean Rust (Phakopsora pachyrhizi; Bayer Code […]) Technical grades of materials were dissolved in acetone, which were then mixed with nine volumes of water containing 0.011% Tween 20. The fungicide solutions were applied onto soybean seedlings using an automated booth sprayer to run-off. All sprayed plants were allowed to air dry prior to further handling. Soybean plants (variety Williams 82) were grown in soil-less Metro mix, with one plant per pot. Two week old seedlings were used for testing. Plants were inoculated either 3 days prior to or 1 day after fungicide treatments. Plants were incubated for 24 h in a dark dew room at 22° C. and 100% relative humidity then transferred to a growth room at 23° C. for disease to develop. Disease severity was assessed on the sprayed leaves.

Setting [1] is: 24 h, 1 day protectant, read-out: PHAKPA 1DP (1 Day Protectant) disease control.
[2] abbreviates: 72 h, 3 day curative, read-out: PHAKPA 3DC (3 Day Curative) disease control.

Consider `COc1ccnc(C(=O)NCC(=O)O[C@@H](C)[C@@H](C)c2ccc(F)cc2)c1OC(=O)C(C)C` [Example 199], for which the pest or weed control at 25 ppm was < 0% under setting [1] and < 0% under setting [2].
`CCCC(=O)Oc1c(OC)ccnc1C(=O)N[C@@H](C)C(=O)O[C@@H](C)[C@@H](C)c1ccccc1C` [Example 279]: the pest or weed control at 25 ppm by setting is: under setting [1], > 80%; under setting [2], > 80%.
Consider `COc1ccnc(C(=O)N[C@H](C(=O)O[C@H](C)[C@@H](C)c2ccccc2C)C(C)C)c1OC(=O)C(C)C` [Example 215], for which the pest or weed control at 25 ppm by setting is: under setting [1], < 80%; under setting [2], < 80%.
Regarding `COc1ccnc(C(=O)N[C@@H](C)C(=O)O[C@H](C)[C@@H](C)c2ccc(F)cc2C)c1OC(C)=O` [Example 181], the pest or weed control at 25 ppm under setting [1] was < 80% and the pest or weed control at 25 ppm under setting [2] is < 0%.
`COc1ccnc(C(=O)N[C@@H](C)C(=O)O[C@@H](C)[C@H](C)c2ccc(F)cc2C)c1OC(=O)C(C)C` [Example 201]: the pest or weed control at 25 ppm is, setting by setting: under setting [1], < 80%; under setting [2], < 80%.
Consider `COc1ccc([C@@H](C)[C@@H](C)OC(=O)[C@H](C)NC(=O)c2nccc(OC)c2OC(C)=O)c(C)c1` [Example 183], for which the pest or weed control at 25 ppm by setting is: under setting [1], > 80%; under setting [2], < 80%.
With `COc1ccnc(C(=O)N[C@H](C(=O)O[C@H](C)[C@H](C)c2ccc(F)cc2C)C(C)C)c1OC(=O)C(C)C` [Example 214], the pest or weed control at 25 ppm is < 80% under setting [1] and < 80% under setting [2].
With `COc1ccnc(C(=O)N[C@H](C(=O)O[C@@H](C)[C@@H](C)c2ccc(F)cc2C)C(C)C)c1OC(=O)C(C)C` [Example 207], where the note is “1 day protectant”, the “PHAKPA 1DP (1 Day Protectant) disease control” value (“PHAKPA 1DP” below) was “B (≤80)”. Moreover, the “PHAKPA 3DC (3 Day Curative) disease control” value (“PHAKPA 3DC” below) (3 day curative) is “D (≤0)”.
As to `COc1ccnc2c(=O)n([C@@H](C)C(=O)O[C@@H](C)[C@@H](C)c3ccccc3C)c(=O)oc12` [Example 285], the pest or weed control at 25 ppm under setting [1] is > 80% and the pest or weed control at 25 ppm under setting [2] is > 80%.
`COc1ccnc(C(=O)NCC(=O)O[C@@H](C)[C@H](C)c2ccc(F)cc2C)c1OC(=O)C(C)C` [Example 197]: the pest or weed control at 25 ppm runs as follows: under setting [1], < 0%; under setting [2], < 0%.
In the case of `COc1ccnc(C(=O)NCC(=O)O[C@@H](C)[C@H](C)c2ccccc2C)c1OC(=O)C(C)C` [Example 198], the pest or weed control at 25 ppm runs as follows: under setting [1], < 0%; under setting [2], < 0%.
On to `COc1ccc([C@H](C)[C@H](C)OC(=O)CNC(=O)c2nccc(OC)c2OC(=O)C(C)C)c(C)c1` [Example 224], for which, under “1 day protectant”, the “PHAKPA 1DP” value was “B (≤80)”. Moreover, the “PHAKPA 3DC” value (3 day curative) was “D (≤0)”.
As to `COc1ccnc(C(=O)N[C@H](C(=O)O[C@H](C)[C@H](C)c2ccc(F)cc2)C(C)C)c1OC(C)=O` [Example 192], the pest or weed control at 25 ppm reads like this: under setting [1], < 80%; under setting [2], < 0%.
Turning to `COc1ccnc(C(=O)N[C@H](C)C(=O)O[C@@H](C)[C@H](C)c2ccc(F)cc2C)c1OC(=O)C(C)C` [Example 218], the pest or weed control at 25 ppm reads like this: under setting [1], < 0%; under setting [2], < 80%.
The matching figures for `CCCCC(=O)Oc1c(OC)ccnc1C(=O)N[C@@H](C)C(=O)O[C@@H](C)[C@@H](C)c1ccccc1C` [Example 280]: > 80% and > 80%.
Regarding `COc1ccnc(C(=O)N[C@H](C(=O)O[C@@H](C)[C@H](C)c2ccc(F)cc2C)C(C)C)c1OC(C)=O` [Example 185], the pest or weed control at 25 ppm under setting [1] was < 0% and the pest or weed control at 25 ppm under setting [2] is < 0%.
In the case of `COc1ccnc(C(=O)N[C@@H](C)C(=O)O[C@H](C)[C@H](C)c2ccc(F)cc2)c1OC(=O)C(C)C` [Example 226], the pest or weed control at 25 ppm by setting is: under setting [1], < 0%; under setting [2], < 80%.
Taken in the same sequence, the figures for `COc1ccc([C@H](C)[C@H](C)OC(=O)[C@@H](NC(=O)c2nccc(OC)c2OC(C)=O)C(C)C)c(C)c1` [Example 188] were > 80% and < 80%.
On to `COc1ccc([C@H](C)[C@H](C)OC(=O)[C@H](C)NC(=O)c2nccc(OC)c2OC(=O)C(C)C)c(C)c1` [Example 230], for which the “PHAKPA 1DP” value (1 day protectant) is recorded as “D (≤0)”. Moreover, where the note is “3 day curative”, the “PHAKPA 3DC” value is “D (≤0)”.
Take `COc1ccnc(C(=O)N[C@H](C(=O)O[C@H](C)[C@H](C)c2ccc(F)cc2)C(C)C)c1OC(=O)C(C)C` [Example 216]: the pest or weed control at 25 ppm under setting [1] is < 80% and the pest or weed control at 25 ppm under setting [2] was < 0%.
Consider `COc1ccnc(C(=O)N[C@H](C(=O)O[C@@H](C)[C@@H](C)c2ccc(F)cc2C)C(C)C)c1OC(=O)C(C)C` [Example 205], for which the “PHAKPA 3DC” value (3 day curative) is listed as “B (≤80)”. Also, under setting [1], the pest or weed control at 25 ppm is > 80%.
With `COc1ccnc(C(=O)NCC(=O)O[C@@H](C)[C@@H](C)c2ccc(F)cc2C)c1OC(=O)C(C)C` [Example 196], the “PHAKPA 1DP” value (1 day protectant) is on record as “A (>80)”. Under “3 day curative”, the “PHAKPA 3DC” value is “B (≤80)”.
Take `COc1ccnc(C(=O)N[C@H](C(=O)O[C@@H](C)[C@@H](C)c2ccc(F)cc2)C(C)C)c1OC(C)=O` [Example 187]: the pest or weed control at 25 ppm was > 80% under setting [1] and < 0% under setting [2].
Turning to `COc1ccnc(C(=O)N[C@H](C(=O)O[C@@H](C)[C@H](C)c2ccccc2C)C(C)C)c1OC(C)=O` [Example 186], the pest or weed control at 25 ppm is, setting by setting: under setting [1], < 80%; under setting [2], < 80%.
On to `COc1ccnc(C(=O)N[C@H](C(=O)O[C@H](C)[C@H](C)c2ccc(F)cc2C)C(C)C)c1OC(C)=O` [Example 189], for which the pest or weed control at 25 ppm reads like this: under setting [1], > 80%; under setting [2], < 80%.
`COc1ccnc(C(=O)N[C@H](C(=O)O[C@@H](C)[C@@H](C)c2ccc(F)cc2C)C(C)C)c1OC(C)=O` [Example 184]: the pest or weed control at 25 ppm reads like this: under setting [1], > 80%; under setting [2], > 80%.
Take `COc1ccc([C@H](C)[C@H](C)OC(=O)[C@H](C)NC(=O)c2nccc(OC)c2OC(=O)C(C)C)c(C)c1` [Example 204]: for the setting “1 day protectant”, the “PHAKPA 1DP” value is on record as “A (>80)”. For the same compound, the “PHAKPA 3DC” value (3 day curative) was “A (>80)”.
In the case of `COc1ccnc(C(=O)N[C@@H](C)C(=O)O[C@@H](C)[C@@H](C)c2ccc(F)cc2)c1OC(=O)C(C)C` [Example 229], the “PHAKPA 1DP” value (1 day protectant) is listed as “D (≤0)”. Moreover, the “PHAKPA 3DC” value (3 day curative) was “D (≤0)”.
Regarding `COc1ccc([C@H](C)[C@H](C)OC(=O)CNC(=O)c2nccc(OC)c2OC(=O)C(C)C)c(C)c1` [Example 200], the “PHAKPA 3DC” value (3 day curative) is “B (≤80)”. The pest or weed control at 25 ppm under setting [1] was < 80%.
Turning to `COc1ccnc(C(=O)N[C@@H](C)C(=O)O[C@@H](C)[C@@H](C)c2ccc(F)cc2)c1OC(=O)C(C)C` [Example 203], the “PHAKPA 1DP” value (1 day protectant) is “A (>80)”. Moreover, the “PHAKPA 3DC” value (3 day curative) is reported as “B (≤80)”.
Turning to `COc1ccnc(C(=O)NCC(=O)O[C@@H](C)[C@@H](C)c2ccc(F)cc2C)c1OC(=O)C(C)C` [Example 221], the “PHAKPA 1DP” value (1 day protectant) is on record as “D (≤0)”. Further, for the setting “3 day curative”, the “PHAKPA 3DC” value was “D (≤0)”.
Turning to `COc1ccnc(C(=O)N[C@@H](C)C(=O)O[C@@H](C)[C@@H](C)c2ccccc2C)c1OC(=O)C1CC1` [Example 281], the pest or weed control at 25 ppm is, setting by setting: under setting [1], > 80%; under setting [2], > 80%.
